Laboratory results as given in EP4796538A1, “NOVEL QUINOXALINE COMPOUNDS, MANUFACTURING METHOD THEREOF, AND USES THEREOF” (Gachon University of Industry-Academic Cooperation …, priority 2023, dated 2025).
Positions count from the first letter of the chain named. Where two headings read alike, the source gives them in different places.

Columns and labels:
RET(V804M) = target: T1, RET(V804M) (Homo sapiens, UniProt P07949, V804M); assay: Kinase panel inhibition, radiolabeled [γ-33P] ATP (Reaction Biology Corp); assay type: biochemical; conditions: for remaining activity at 1 µM: compound at 1 uM, ATP 10 µM, read-out: % Enzyme Activity (relative to DMSO controls) V804M; for IC50: read-out: Enzymatic inhibitory activity (IC50) nM V804M
T1 construct: purchased Reaction Biology Corp

RET = target: T2, RET (Homo sapiens, UniProt P07949); assay: as above; assay type: biochemical; conditions: for remaining activity at 1 µM: compound at 1 uM, ATP 10 µM, read-out: % Enzyme Activity (relative to DMSO controls) RET; for IC50: read-out: Enzymatic inhibitory activity (IC50) nM RET
T2 construct: purchased Reaction Biology Corp

A-549 = assay: Cell proliferation inhibition, Cell Counting Kit-8, non-small cell lung cancer cell line; assay type: cell-based; conditions: A-549 cell line; 72 hours incubation; test concentration not given
RET-NCOA4 (PTC3) = target: T3, RET-NCOA4 (PTC3) (Homo sapiens, UniProt P07949); assay: Kinase panel inhibition, radiolabeled [γ-33P] ATP (Reaction Biology Corp); assay type: biochemical; conditions: compound at 1 uM; ATP 10 µM; read-out: % Enzyme Activity (relative to DMSO controls) RET-NCOA4 (PTC3)
T3 construct: purchased Reaction Biology Corp

RET(V804M)-KIF5B = target: T4, RET(V804M)-KIF5B (Homo sapiens, UniProt P07949, V804M); assay: as above; assay type: biochemical
T4 sequence (P07949 713-1114 V804M): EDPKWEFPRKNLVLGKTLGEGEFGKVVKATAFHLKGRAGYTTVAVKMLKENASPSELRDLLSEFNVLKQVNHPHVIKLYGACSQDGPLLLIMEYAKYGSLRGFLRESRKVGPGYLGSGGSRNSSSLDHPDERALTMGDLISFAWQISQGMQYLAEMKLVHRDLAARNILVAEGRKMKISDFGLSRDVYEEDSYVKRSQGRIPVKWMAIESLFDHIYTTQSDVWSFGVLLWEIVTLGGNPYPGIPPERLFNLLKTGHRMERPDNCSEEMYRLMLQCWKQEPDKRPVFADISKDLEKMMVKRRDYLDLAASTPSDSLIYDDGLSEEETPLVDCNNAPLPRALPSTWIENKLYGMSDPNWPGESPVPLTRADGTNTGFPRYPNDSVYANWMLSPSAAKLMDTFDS
T4 sequence (P33176 2-575 partner): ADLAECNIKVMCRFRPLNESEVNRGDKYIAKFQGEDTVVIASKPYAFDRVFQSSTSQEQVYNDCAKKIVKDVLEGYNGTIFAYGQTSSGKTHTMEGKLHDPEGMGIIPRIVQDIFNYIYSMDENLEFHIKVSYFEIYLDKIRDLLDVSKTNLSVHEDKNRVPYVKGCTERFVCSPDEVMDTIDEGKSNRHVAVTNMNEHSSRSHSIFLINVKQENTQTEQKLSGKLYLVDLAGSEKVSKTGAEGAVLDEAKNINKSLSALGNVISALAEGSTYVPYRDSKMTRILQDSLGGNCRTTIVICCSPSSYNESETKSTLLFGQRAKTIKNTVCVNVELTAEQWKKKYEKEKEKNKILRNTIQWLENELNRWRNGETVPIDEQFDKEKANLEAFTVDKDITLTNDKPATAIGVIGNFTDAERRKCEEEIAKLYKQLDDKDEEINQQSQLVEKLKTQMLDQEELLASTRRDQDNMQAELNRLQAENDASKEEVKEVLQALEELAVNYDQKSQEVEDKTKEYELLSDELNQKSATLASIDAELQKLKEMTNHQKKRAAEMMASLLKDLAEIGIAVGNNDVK

RET (G810S/M918T) = target: T5, RET (G810S/M918T) (Homo sapiens, UniProt P07949, G810S/M918T); assay: as above; assay type: biochemical; conditions: compound at 10 uM, ATP 1 µM
T5 construct: purchased Reaction Biology Corp

RET-CCDC6 (PTC1) = target: T6, RET-CCDC6 (PTC1) (Homo sapiens, UniProt P07949); assay: as above; assay type: biochemical; conditions: for remaining activity at 1 µM: compound at 1 uM, ATP 10 µM, read-out: % Enzyme Activity (relative to DMSO controls) RET-CCDC6 (PTC1); for remaining activity at 10 µM: compound at 10 uM, ATP 1 µM
T6 construct: purchased Reaction Biology Corp

BaF3 KIF5B-RET (G810R) = assay: Cell proliferation inhibition, Cell Counting Kit-8, Ba/F3 cell line; assay type: cell-based, rodent; conditions: Mus musculus, 72 hours incubation, read-out: Cell Viability of BaF3 Cell lines (IC50 in uM) KIF5B-RET (G810R)
Experimental: Each cell line was seeded in a 96-well plate at 1×10^4 cells/90 µL/well, and 10 µL/well of culture medium containing each example and intermediate compound or DMSO control at 9 concentrations (1 nM to 100 µM) prepared by 3-fold serial dilutions was added to achieve a final concentration of 0 to 100 µM, followed by incubation for 72 hours in a 37°C, 5% CO2 incubator. After 72 hours of incubation, the compound-treated plates were removed, and Cell Counting Kit-8 solution was added at 10 µL/well and mixed well.
As a control compound, selpercatinib, a known RET inhibitor, was treated to calculate the IC50 values.

KIF5B-RET = target: T7, KIF5B-RET (Homo sapiens, UniProt P07949); assay: Kinase panel inhibition, radiolabeled [γ-33P] ATP (Reaction Biology Corp); assay type: biochemical; conditions: read-out: Enzymatic inhibitory activity (IC50) nM KIF5B-RET
T7 sequence (P07949 713-1114): T4 sequence (P07949 713-1114 V804M) with M92V
T7 sequence (P33176 2-575 partner): T4 sequence (P33176 2-575 partner)
Experimental: The inhibitory activities of the example and intermediate compounds of the present invention against a kinase panel (Reaction Biology Corp) of RET and RET mutations (RET(G810R), RET(V804M), KIF5B-RET, RET(V804M)-KIF5B, RET-CCDC6, RET-NCOA4, and RET(G810S/M918T)) were investigated. Using radiolabeled ATP ([γ-33P] ATP), the degree to which the substrate was replaced by a 33P-phosphorylated substrate was measured, and changes in kinase activity were determined from the measurement of the radiolabeled phosphorylated substrate. The example and intermediate compounds were tested at concentrations of 0.1 µM to 30 µM against ATP concentrations of 1 µM or 10 µM. The residual activity (%) of the example and intermediate compounds after inhibition against each kinase panel is shown in Tables 3 to 5 below. […]

[1] = Data 1, read-out: % Enzyme Activity (relative to DMSO controls) RET (G810S/M918T) Data 1
[2] = Data 2, read-out: % Enzyme Activity (relative to DMSO controls) RET (G810S/M918T) Data 2
[3] = Data 1, read-out: % Enzyme Activity (relative to DMSO controls) RET-CCDC6 (PTC1) Data 1
[4] = Data 2, read-out: % Enzyme Activity (relative to DMSO controls) RET-CCDC6 (PTC1) Data 2

T1 sequence (P07949 29-1114 V804M): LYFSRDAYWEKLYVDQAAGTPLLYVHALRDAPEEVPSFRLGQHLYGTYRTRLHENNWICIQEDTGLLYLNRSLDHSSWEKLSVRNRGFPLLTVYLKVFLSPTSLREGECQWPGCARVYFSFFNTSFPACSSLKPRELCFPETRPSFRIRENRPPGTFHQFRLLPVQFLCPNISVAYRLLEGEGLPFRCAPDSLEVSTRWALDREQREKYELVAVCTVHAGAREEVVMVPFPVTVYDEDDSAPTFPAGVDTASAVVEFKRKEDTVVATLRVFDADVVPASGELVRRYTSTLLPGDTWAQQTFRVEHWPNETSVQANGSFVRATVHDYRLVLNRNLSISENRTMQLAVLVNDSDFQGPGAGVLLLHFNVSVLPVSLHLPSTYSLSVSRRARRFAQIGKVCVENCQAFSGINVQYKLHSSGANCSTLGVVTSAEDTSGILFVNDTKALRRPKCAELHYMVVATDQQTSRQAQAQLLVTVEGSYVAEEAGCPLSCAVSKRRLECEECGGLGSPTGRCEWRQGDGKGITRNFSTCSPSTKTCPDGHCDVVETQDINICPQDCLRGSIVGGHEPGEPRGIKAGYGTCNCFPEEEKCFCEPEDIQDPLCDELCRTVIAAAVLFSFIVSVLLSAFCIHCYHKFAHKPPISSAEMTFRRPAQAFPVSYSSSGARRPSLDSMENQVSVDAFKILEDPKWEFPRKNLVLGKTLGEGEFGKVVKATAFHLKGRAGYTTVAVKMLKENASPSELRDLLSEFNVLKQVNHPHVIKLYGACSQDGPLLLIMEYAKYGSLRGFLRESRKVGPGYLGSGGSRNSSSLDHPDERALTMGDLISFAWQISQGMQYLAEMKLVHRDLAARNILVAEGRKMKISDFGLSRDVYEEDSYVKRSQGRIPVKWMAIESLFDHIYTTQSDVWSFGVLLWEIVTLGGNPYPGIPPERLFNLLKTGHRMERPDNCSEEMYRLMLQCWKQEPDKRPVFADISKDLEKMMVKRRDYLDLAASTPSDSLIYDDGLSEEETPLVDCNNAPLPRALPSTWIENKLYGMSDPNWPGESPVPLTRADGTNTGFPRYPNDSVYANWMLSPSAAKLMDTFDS
T5 sequence (P07949 29-1114 G810S/M918T): as the sequence (P07949 29-1114 V804M) above, with M776V, G782S, M890T counted along it
T2 sequence (P07949 29-1114): as the sequence (P07949 29-1114 V804M) above, with M776V counted along it
T6 sequence (P07949 whole entry, looked up): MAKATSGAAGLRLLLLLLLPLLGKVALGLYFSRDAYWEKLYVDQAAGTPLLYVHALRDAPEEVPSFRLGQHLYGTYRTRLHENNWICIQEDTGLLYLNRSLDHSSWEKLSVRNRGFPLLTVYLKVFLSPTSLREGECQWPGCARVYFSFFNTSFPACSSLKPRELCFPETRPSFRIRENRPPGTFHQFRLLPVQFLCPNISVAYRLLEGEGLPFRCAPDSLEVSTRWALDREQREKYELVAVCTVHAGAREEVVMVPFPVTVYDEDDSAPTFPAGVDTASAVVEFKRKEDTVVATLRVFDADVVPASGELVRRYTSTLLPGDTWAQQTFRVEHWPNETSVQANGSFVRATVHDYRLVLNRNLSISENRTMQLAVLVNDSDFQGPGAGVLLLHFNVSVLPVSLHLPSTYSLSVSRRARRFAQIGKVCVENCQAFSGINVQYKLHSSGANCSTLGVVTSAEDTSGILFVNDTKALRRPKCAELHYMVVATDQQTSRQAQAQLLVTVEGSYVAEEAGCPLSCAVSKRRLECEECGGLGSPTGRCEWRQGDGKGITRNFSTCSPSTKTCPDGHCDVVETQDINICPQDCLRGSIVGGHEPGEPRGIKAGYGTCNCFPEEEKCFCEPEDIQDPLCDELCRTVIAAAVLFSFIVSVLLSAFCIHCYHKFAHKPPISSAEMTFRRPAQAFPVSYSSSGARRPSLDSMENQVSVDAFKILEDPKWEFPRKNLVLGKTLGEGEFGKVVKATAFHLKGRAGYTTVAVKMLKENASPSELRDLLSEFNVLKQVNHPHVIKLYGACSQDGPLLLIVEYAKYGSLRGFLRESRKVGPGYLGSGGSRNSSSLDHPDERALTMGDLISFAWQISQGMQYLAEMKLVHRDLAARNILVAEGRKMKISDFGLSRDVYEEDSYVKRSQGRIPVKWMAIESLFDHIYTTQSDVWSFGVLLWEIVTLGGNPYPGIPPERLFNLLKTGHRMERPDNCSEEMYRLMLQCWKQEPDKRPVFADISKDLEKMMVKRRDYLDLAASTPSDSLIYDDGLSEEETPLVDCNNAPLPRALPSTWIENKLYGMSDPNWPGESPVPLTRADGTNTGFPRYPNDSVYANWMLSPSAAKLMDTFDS
T3 sequence (P07949 whole entry, looked up): as above

CCNc1cc(-c2ccc(N3CC(Oc4cccc(F)c4)C3)nc2)c2nccnc2c1 [Example 3, N-ethyl-8-(6-(3-(3-fluorophenoxy)azetidin-1-yl)pyridin-3-yl)quinoxalin-6-amine]
remaining activity at 1 µM (RET(V804M)): 0.63%
IC50 (RET(V804M)): 0.78 nM
remaining activity at 1 µM (RET): 0.14%
IC50 (RET): 0.57 nM
Cell Proliferation (% of control) (A-549): 25.06%
remaining activity at 1 µM (RET-NCOA4 (PTC3)): 16.8%
IC50 (RET(V804M)-KIF5B): 1.36 nM
remaining activity at 10 µM (RET (G810S/M918T); [1]): -0.47%
remaining activity at 10 µM (RET (G810S/M918T); [2]): -0.51%
remaining activity at 1 µM (RET-CCDC6 (PTC1)): 18.6%
remaining activity at 10 µM (RET-CCDC6 (PTC1); [3]): 0.73%
remaining activity at 10 µM (RET-CCDC6 (PTC1); [4]): 0.91%
IC50 (BaF3 KIF5B-RET (G810R)): 1.09 µM
IC50 (KIF5B-RET): < 0.5 nM

Nc1cc(-c2ccc(N3CC(Oc4cccc(F)c4)C3)nc2)c2nccnc2c1 [Example 1, 8-(6-(3-(3-fluorophenoxy)azetidin-1-yl)pyridin-3-yl)quinoxalin-6-amine]
remaining activity at 1 µM (RET(V804M)): 1.72%
IC50 (RET(V804M)): 4.2 nM
remaining activity at 1 µM (RET): 0.51%
IC50 (RET): 3.9 nM
Cell Proliferation (% of control) (A-549): 34.36%
remaining activity at 1 µM (RET-NCOA4 (PTC3)): 1.11%
IC50 (RET(V804M)-KIF5B): 6.71 nM
remaining activity at 10 µM (RET (G810S/M918T); [1]): 0.22%
remaining activity at 10 µM (RET (G810S/M918T); [2]): -0.72%
remaining activity at 1 µM (RET-CCDC6 (PTC1)): 0.01%
remaining activity at 10 µM (RET-CCDC6 (PTC1); [3]): 0.75%
remaining activity at 10 µM (RET-CCDC6 (PTC1); [4]): 0.52%
IC50 (BaF3 KIF5B-RET (G810R)): 0.88 µM
IC50 (KIF5B-RET): 2.2 nM
